Measurements as given in paper PMC4414309, “Target Modulation by a Kinase Inhibitor Engineered to Induce a Tandem Blockade of the Epidermal Growth Factor Receptor (EGFR) and c-Src: The Concept of Type III Combi-Targeting” (PLoS ONE, 2015).
Like-named read-outs stand apart in the source and are kept apart here.

Key:
[1] = target: T1, EGFR (Homo sapiens, UniProt P00533); assay: Published EGFR kinase inhibition of AL621; type: biochemical; conditions: published IC50 of AL621 compared with AL776
T1 construct: purchased Enzo Life Sciences Inc, NY, USA; Signal Chem, Richmond, Canada
T1 sequence (P00533 25-1210): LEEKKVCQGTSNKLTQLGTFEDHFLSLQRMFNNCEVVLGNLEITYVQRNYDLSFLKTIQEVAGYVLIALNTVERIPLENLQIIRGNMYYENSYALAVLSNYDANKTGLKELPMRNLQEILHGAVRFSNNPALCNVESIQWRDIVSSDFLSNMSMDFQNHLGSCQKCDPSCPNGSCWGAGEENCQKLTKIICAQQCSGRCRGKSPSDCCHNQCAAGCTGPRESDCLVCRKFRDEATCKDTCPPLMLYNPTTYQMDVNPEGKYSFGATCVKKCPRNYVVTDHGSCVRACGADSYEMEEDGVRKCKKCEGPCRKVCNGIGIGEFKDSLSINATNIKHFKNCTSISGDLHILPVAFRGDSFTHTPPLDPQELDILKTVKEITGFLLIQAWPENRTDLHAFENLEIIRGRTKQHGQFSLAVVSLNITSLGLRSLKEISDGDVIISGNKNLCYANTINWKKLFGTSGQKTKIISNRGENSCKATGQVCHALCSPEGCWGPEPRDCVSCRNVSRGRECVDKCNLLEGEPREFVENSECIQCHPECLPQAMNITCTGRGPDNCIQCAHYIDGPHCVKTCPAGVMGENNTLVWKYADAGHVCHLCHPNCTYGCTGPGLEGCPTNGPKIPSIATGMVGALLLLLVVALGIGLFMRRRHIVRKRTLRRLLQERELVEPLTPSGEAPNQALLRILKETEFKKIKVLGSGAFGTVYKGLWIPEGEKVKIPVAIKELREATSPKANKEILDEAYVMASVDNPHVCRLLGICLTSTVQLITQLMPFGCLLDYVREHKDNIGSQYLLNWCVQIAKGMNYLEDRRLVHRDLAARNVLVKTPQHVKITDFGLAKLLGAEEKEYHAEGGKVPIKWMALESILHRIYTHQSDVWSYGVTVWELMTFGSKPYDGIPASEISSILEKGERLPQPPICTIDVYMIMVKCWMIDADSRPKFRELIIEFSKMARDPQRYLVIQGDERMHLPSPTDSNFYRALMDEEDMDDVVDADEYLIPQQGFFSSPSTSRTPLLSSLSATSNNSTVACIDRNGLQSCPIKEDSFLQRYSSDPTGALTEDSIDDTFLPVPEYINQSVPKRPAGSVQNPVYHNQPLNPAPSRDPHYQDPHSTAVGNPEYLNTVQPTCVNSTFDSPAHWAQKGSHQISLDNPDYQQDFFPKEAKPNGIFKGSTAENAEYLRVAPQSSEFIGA

[2] = target: T1, EGFR; design: method as in PMID 22943437; conditions: read-out: IC50 EGFR kinase inhibition (published); cited from earlier work
[3] = LC-MS analysis of AL776 hydrolysis in plasma in vivo; design: species or system CD-1 mice; conditions: AL776 80 mg/kg i.v., after 30 min
Description: CD-1 mice were divided into groups of three and treated with 80 mg/kg of AL776, injected intraperitoneally (i.p) or intravenously (i.v). Mice were sacrificed and their plasma was collected for further analysis after 0, 5, 15 and 30 min after drug treatment. Plasma samples were extracted using twice the volume of methanol and lysed at 13,000 rpm for 30 min at 4°C. The resulting supernatant from each sample was collected, filtered and evaporated to dryness before reconstituting in 100 μL of methanol. LC-MS analyses were performed on a Synapt G2-S instrument coupled with an Acquity UPLC Class I system both from Waters. Elution rate was set at 500 μL/min using an Eclipse XDB C8, 3.5 um, 2.1 x 100 mm chromatographic column from Agilent Technologies. The experiments were performed with the following eluents: 0.1% aqueous formic acid (eluent A) and methanol (eluent B). The initial mobile phase was 30% B, which was maintained for 0.2 min at the beginning of the run. The following gradient elution was subsequently applied: 30 to 50% B from 0.2 to 4 min; 50 to 80% B from 4 to 10 min; held at 80% B from 10 to 11 min. Thereafter, eluent B was decreased to 30% in 0.2 min and held constant for up to 15 min to allow the column to equilibrate. Each sample was diluted with methanol in order to avoid detector saturation and […] aliquots of the resulting solutions were injected. Analyses were performed with the electrospray interface in positive ion mode and mass spectra acquired from m/z 100 to 1200. For accurate mass determination, Leucine Enkephalin was used as lock mass. The MassLynx software was used for instrument control, data acquisition and data processing.

[4] = system: 4T1 cells; assay: Growth inhibition, SRB assay, 4T1; conditions: Mus musculus, 4T1, 120 h, read-out: IC50 growth inhibition 4T1
Description: (§3) Growth inhibition was measured in cells using the sulforhodamine B (SRB) assay [48]. […] The plates were subsequently rinsed with 1% acetic acid, and allowed to dry overnight. […] The results were analyzed using GraphPad Prism 6.0 (GraphPadSoftware, Inc., San Diego, CA) and the sigmoidal dose response curve was used to determine IC50 values. Each experiment was carried out at least four times, in triplicate.

[5] = system: NIH3T3 wild type cells; assay: Growth inhibition, sulforhodamine B (SRB) assay, NIH3T3 wild type; conditions: Mus musculus, NIH3T3, 120 h, read-out: IC50 growth inhibition NIH3T3 – Wt
Description: as §3

[6] = system: MDA-MB-231 cells; assay: Boyden chamber invasion assay, MDA-MB-231; type: cell-based, human; conditions: for Effect on invasion: MDA-MB-231, concentration as low as 0.1 μM, 24h
Description: (§1) The invasive property of MDA-MB-231 and 4T1 cells was determined using the Boyden-chamber invasion assay. Cells suspended in serum-free media were plated (120–150,000 cells/well) onto polycarbonate transwell inserts (8 μm pore size, BD Biosciences) coated with matrigel (6%) (BD Biosciences), separating the top and bottom chambers (50 μl/filter). […] The invasive property of cells was observed 24h after treatment by fixing cells in formalin and staining with 0.1% crystal violet (Sigma-Aldrich Canada Ltd). Cells attached on the upper surface of the insert (top chamber) were removed by gently scraping away with a cotton swab, whereas those that invaded onto the lower side of the insert were observed using a microscope (Leica DM IL inverted microscope, 10X). Images of five non-overlapping fields of invading cells were captured using the Leica DFC300FX camera and quantification was done using the Scion Image Analysis (3.53.0.0) software and ImageJ 1.46r software. The results were expressed in terms of percentage of invading cells relative to control and the bar graphs represent the average of three independent experiments.

[7] = system: MDA-MB-231 cells; assay: Growth inhibition, SRB assay, MDA-MB-231; conditions: Homo sapiens, MDA-MB-231, 120 h, read-out: IC50 growth inhibition MDA-MB-231
Description: as §3

[8] = system: 4T1 cells; assay: Boyden chamber invasion assay, 4T1; type: cell-based, mouse; conditions: for Effect on invasion: 4T1, concentration as low as 0.1 μM, 24h
Description: as §1

[9] = target: T2, c-Src (Homo sapiens, UniProt P12931); assay: In vitro kinase assay, c-Src; type: biochemical; conditions: ATP 50 μM, read-out: IC50 c-Src kinase inhibition
T2 construct: purchased Enzo Life Sciences Inc, NY, USA; Signal Chem, Richmond, Canada
T2 sequence (P12931 whole entry): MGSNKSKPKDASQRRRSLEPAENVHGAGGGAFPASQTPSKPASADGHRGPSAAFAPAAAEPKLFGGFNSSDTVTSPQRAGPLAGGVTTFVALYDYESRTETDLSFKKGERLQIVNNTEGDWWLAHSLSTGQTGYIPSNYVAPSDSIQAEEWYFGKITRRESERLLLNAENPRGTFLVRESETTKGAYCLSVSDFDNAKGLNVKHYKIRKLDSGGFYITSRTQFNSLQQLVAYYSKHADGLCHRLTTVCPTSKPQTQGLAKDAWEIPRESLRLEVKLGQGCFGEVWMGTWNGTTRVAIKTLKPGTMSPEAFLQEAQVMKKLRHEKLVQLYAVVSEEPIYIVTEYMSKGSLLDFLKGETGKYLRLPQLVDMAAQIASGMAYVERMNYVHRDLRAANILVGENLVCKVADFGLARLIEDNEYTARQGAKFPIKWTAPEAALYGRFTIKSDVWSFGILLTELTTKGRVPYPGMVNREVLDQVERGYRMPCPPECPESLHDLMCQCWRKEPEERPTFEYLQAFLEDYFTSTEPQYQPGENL
Description: (§2) The EGFR and c-Src kinase assays were performed in 96-well plates (NuncMaxisorp) coated with PGT (poly L-glutamic acid L-tyrosine, 4:1, Sigma Aldrich, MO, USA) and incubated at 37°C for 48h prior to using. PGT served as the substrate to be phosphorylated by EGFR (Enzo Life Sciences Inc, NY, USA, Signal Chem, Richmond, Canada) and c-Src (Enzo Life Sciences Inc, NY, USA, Signal Chem, Richmond, Canada) in the presence of ATP (50 μM). […] To each well, 15 ng of EGFR (20 μg/ml) or 6 ng of c-Src (0.1 μg/μl) were added. The phosphorylated substrate was detected using an HRP-conjugated anti-phosphotyrosine antibody (Santa Cruz Biotechnology, CA). The signal was developed by the addition of 3, 3’, 5, 5’-tetramethylbenzidine peroxidase substrate (Kierkegaard and Perry Laboratories, Gaithersburg, MD) and the colorimetric reaction was monitored at 450 nm using a microplate reader ELx808 (BioTek Instruments). The IC50 values were calculated using GraphPad Prism 6.0 (GraphPadSoftware, Inc., San Diego, CA). Each experiment was carried out at least three times, in duplicate.

[10] = target: T1, EGFR; assay: In vitro kinase assay, EGFR; type: biochemical; conditions: ATP 50 μM, average of three independent experiments in duplicate, read-out: IC50 EGFR kinase inhibition
Description: as §2

[11] = average of three independent experiments in duplicate

Plasma level as metabolite of AL776 [3]	IC50 [10] [nM]	IC50 [9, 11] [nM]	Compound	Effect on invasion [6]	Effect on invasion [8]	other results
–	600 ± 200	–	Cc1nc(Nc2ncc(C(=O)Nc3c(C)cccc3Cl)s2)cc(N2CCN(CCOC(=O)c3cnc(C(=O)Nc4ccc5ncnc(Nc6cccc(Cl)c6)c5c4)cn3)CC2)n1 [III]	–	–	IC50 [9]: < 0.1 nM
–	400 ± 100	8 ± 3	Cc1nc(Nc2ncc(C(=O)Nc3c(C)cccc3Cl)s2)cc(N2CCN(CCOC(=O)CCC(=O)Nc3ccc4ncnc(Nc5cccc(Cl)c5)c4c3)CC2)n1 [IV]	–	–	–
–	1100 ± 300	40 ± 10	Cc1nc(Nc2ncc(C(=O)Nc3c(C)cccc3Cl)s2)cc(N2CCN(CCOC(=O)OCCN3CCN(CCNc4ccc5ncnc(Nc6cccc(Br)c6)c5c4)CC3)CC2)n1 [VI]	–	–	–

Continued, molecule first:

Compound	Plasma level as metabolite of AL776 [3]	IC50 [10] [nM]	IC50 [9, 11] [nM]	Effect on invasion [6]	Effect on invasion [8]	other results
CN(CCO)Cc1ccc(C(=O)Nc2ccc3ncnc(Nc4cccc(Cl)c4)c3c2)cc1 [AL621]	abundant levels	–	–	–	–	EGFR kinase potency relative to intact AL776 [1]: ca. 40 fold; IC50 [2]: 3 nM
Cc1nc(Nc2ncc(C(=O)Nc3c(C)cccc3Cl)s2)cc(N2CCN(CCO)CC2)n1 [Dasatinib, dasatinib, reference compound]	abundant levels	–	–	strongly inhibited invasion	strongly inhibited invasion	IC50 [4]: 50 ± 20 nM; IC50 [5]: 16400 ± 5200 nM; IC50 [7]: 20 ± 10 nM
COc1cc2ncnc(Nc3ccc(F)c(Cl)c3)c2cc1OCCCN1CCOCC1 [Gefitinib, gefitinib]	–	–	–	mostly unable to block invasion	mostly unable to block invasion	Anti-invasive effect weaker than dasatinib ([6]; MDA-MB-231): 2-3 fold; Anti-invasive effect weaker than dasatinib ([8]; 4T1): 2-3 fold
